Results as given in ChEMBL document CHEMBL1201862, “PubChem BioAssay data set” (2004).
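Method: 48-hour compound exposure of cells in 96-well plates, five concentrations, linear interpolation of endpoints. The concentration for 50% growth inhibition is given as GI50.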 Active and inactive are the calls of the source. Rule as the data show it: active = GI50 up to about 1.1 µM and inactive = higher.

How the values were obtained:
Assay in all cases: NCI-60 cell line screen, 48 h
NCI-H226 = system: NCI-H226
SN12C = system: SN12C
LOX IMVI = system: LOX IMVI
RPMI-8226 = system: RPMI-8226
SNB-19 = system: SNB-19
IGROV-1 = system: IGROV-1
RXF 393 = system: RXF 393
OVCAR-4 = system: OVCAR-4
EKVX = system: EKVX
HL-60 = system: HL-60
SNB-75 = system: SNB-75
KM12 = system: KM12
A549 = system: A549
CAKI-1 = system: CAKI-1
HCT-15 = system: HCT-15
MOLT-4 = system: MOLT-4

Structure (SMILES)	GI50 (NCI-H226)	GI50 (SN12C)	GI50 (LOX IMVI)	GI50 (RPMI-8226)	GI50 (SNB-19)	GI50 (IGROV-1)	GI50 (RXF 393)	GI50 (OVCAR-4)	GI50 (EKVX)	GI50 (HL-60)	GI50 (SNB-75)	GI50 (KM12)	GI50 (A549)	GI50 (CAKI-1)	GI50 (HCT-15) [µM]	GI50 (MOLT-4)
CCOC(=O)C1N(S(=O)(=O)c2ccc(C)cc2)CCC12c1ccccc1N(C(C)=O)C2c1ccc(OC)c(OC)c1 (stereo not given)	19.9 µM (inactive)	> 100 µM (inactive)	> 100 µM (inactive)	65.5 µM (inactive)	> 100 µM (inactive)	> 100 µM (inactive)	> 100 µM (inactive)	71.1 µM (inactive)	> 100 µM (inactive)	48.1 µM (inactive)	74 µM (inactive)	> 100 µM (inactive)	> 100 µM (inactive)	76.7 µM (inactive)		
O=c1[nH]c2c(c3ccccc13)CCc1ccccc1-2	> 100 µM (inactive)	> 100 µM (inactive)		> 100 µM (inactive)	> 100 µM (inactive)	> 100 µM (inactive)	> 100 µM (inactive)	> 100 µM (inactive)	> 100 µM (inactive)		> 100 µM (inactive)	> 100 µM (inactive)	> 100 µM (inactive)	> 100 µM (inactive)	> 100	> 100 µM (inactive)
C=CCN1CCC23c4c5ccc(O)c4OC2C(=NN=C2CCC4(O)C6Cc7ccc(O)c8c7C4(CCN6CC=C)C2O8)CCC3(O)C1C5 (stereo not given)	> 100 µM (inactive)	23 µM (inactive)	20 µM (inactive)	39.2 µM (inactive)	44.3 µM (inactive)	> 100 µM (inactive)		22 µM (inactive)	28.5 µM (inactive)	> 10 µM (inactive)	17.1 µM (inactive)	21.2 µM (inactive)	21.4 µM (inactive)	44.5 µM (inactive)	35.5	38.3 µM (inactive)
CCCN(CCC)c1c([N+](=O)[O-])cc(C(N)=O)cc1[N+](=O)[O-]	> 100 µM (inactive)	> 100 µM (inactive)		> 100 µM (inactive)		> 100 µM (inactive)		> 100 µM (inactive)	36.3 µM (inactive)	27.8 µM (inactive)	> 100 µM (inactive)	> 100 µM (inactive)	81.8 µM (inactive)	37.2 µM (inactive)	62.2	37 µM (inactive)
Cc1ccccc1NC(=O)C(=O)c1c(O)c2ccc(O)cc2oc1=O	> 100 µM (inactive)	> 100 µM (inactive)	> 100 µM (inactive)	> 100 µM (inactive)	> 100 µM (inactive)	> 100 µM (inactive)	> 100 µM (inactive)	> 100 µM (inactive)		> 100 µM (inactive)	> 100 µM (inactive)	> 100 µM (inactive)	> 100 µM (inactive)	> 100 µM (inactive)	> 100	> 100 µM (inactive)
O=C(NCC#CCO)C(F)(F)F	> 100 µM (inactive)	> 100 µM (inactive)	> 100 µM (inactive)		> 100 µM (inactive)	> 100 µM (inactive)	> 100 µM (inactive)	> 100 µM (inactive)	> 100 µM (inactive)			> 100 µM (inactive)	> 100 µM (inactive)	> 100 µM (inactive)	> 100	> 100 µM (inactive)
CSc1ccc2c(cc1=O)C(NC(=O)c1ccc(OC(C)=O)cc1)CCc1cc(O)c(O)c(O)c1-2 (stereo not given)	20.9 µM (inactive)	16.3 µM (inactive)			35.2 µM (inactive)			9.02 µM (inactive)	20.5 µM (inactive)	3.31 µM (inactive)	20 µM (inactive)	32 µM (inactive)	33.9 µM (inactive)		18.8	5.11 µM (inactive)
Cc1nc2c(N)ncnc2o1	> 100 µM (inactive)	> 100 µM (inactive)	> 100 µM (inactive)		> 100 µM (inactive)	> 100 µM (inactive)	> 100 µM (inactive)	> 100 µM (inactive)	> 100 µM (inactive)	> 100 µM (inactive)	> 100 µM (inactive)	> 100 µM (inactive)	> 100 µM (inactive)	> 100 µM (inactive)	> 100	> 100 µM (inactive)
Cc1cc2c(=O)c3ccc(Cl)cc3[nH]c2c(C(=O)O)c1C	> 100 µM (inactive)	> 100 µM (inactive)	> 100 µM (inactive)	> 100 µM (inactive)	> 100 µM (inactive)	> 100 µM (inactive)	47.5 µM (inactive)	> 100 µM (inactive)	> 100 µM (inactive)		> 100 µM (inactive)	32.4 µM (inactive)	> 100 µM (inactive)	> 100 µM (inactive)	> 100	> 100 µM (inactive)
O=C(O)c1cc2sc(C(=O)O)cc2s1	> 100 µM (inactive)	> 100 µM (inactive)	> 100 µM (inactive)	> 100 µM (inactive)	> 100 µM (inactive)	> 100 µM (inactive)	> 100 µM (inactive)	> 100 µM (inactive)		> 100 µM (inactive)	> 100 µM (inactive)	> 100 µM (inactive)	> 100 µM (inactive)	> 100 µM (inactive)	> 100	> 100 µM (inactive)
